Test results from PubChem BioAssay AID270 (DTP/NCI, 2004).
“And” between values parts separate entries of the source, which are not always exact repeats. Equal entries are not always repeated. Results filed as inconclusive are left out.

Tested on: BDF1 mice, s.c. Lewis lung carcinoma, T/C %
Assay: NCI In Vivo Anticancer Drug Screen. Data for tumor model Lewis Lung Carcinoma (subcutaneous) in B6D2F1 (BDF1) mice
How it was run: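 Antitumor effect in vivo is scored from survival or tumor burden, reported as treated relative to vehicle controls.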

In the case of C[C@]12CC[C@H]3[C@@H](CC[C@]4(O)C[C@@H](O)CC[C@]34/C=N/O)[C@@]1(O)CC[C@@H]2C1=COC(=O)C1, the T/C (endpoint: mean tumor weight, dose: 1.87 mg/kg/injection, schedule: Q01DX011 (ip), vehicle: carboxymethylcellulose (CMC), higher = larger tumour) is reported as 34 % of control, the T/C (endpoint: mean tumor weight, dose: 3.75 mg/kg/injection, schedule: Q01DX011 (ip), vehicle: carboxymethylcellulose (CMC), higher = larger tumour) is reported as 58 % of control and the T/C (endpoint: mean tumor weight, dose: 15.0 mg/kg/injection, schedule: Q01DX011 (ip), vehicle: carboxymethylcellulose (CMC), higher = larger tumour) is reported as 92 % of control. The T/C (endpoint: mean tumor weight, dose: 30.0 mg/kg/injection, schedule: Q01DX011 (ip), vehicle: carboxymethylcellulose (CMC), higher = larger tumour) was 61 % of control.

With COc1cc2c3c(c1)/C(=N\Nc1ccccc1)CCN3CCC2 the T/C (endpoint: median survival time, dose: 0.78 mg/kg/injection, schedule: Q01DX009 (ip), vehicle: DMSO, higher = longer survival) was 112 % of control and the T/C (endpoint: median survival time, dose: 3.0 mg/kg/injection, schedule: Q01DX009 (ip), vehicle: DMSO, higher = longer survival) was 124 % of control.

With O=C1NC2(CCCCC2)C(=O)N1CCN(CCCl)CCCl the T/C (endpoint: median survival time, dose: 1.5 mg/kg/injection, schedule: Q01DX009 (ip), vehicle: Klucel (hydroxypropylcellulose) (HPC), higher = longer survival) was 98 % of control, the T/C (endpoint: median survival time, dose: 1.5 mg/kg/injection, schedule: Q01DX009 (ip), vehicle: saline, higher = longer survival) was 91 % of control and the T/C (endpoint: median survival time, dose: 1.56 mg/kg/injection, schedule: Q01DX009 (ip), vehicle: saline, higher = longer survival) was 87 % of control and 93 % of control. For the same molecule, the T/C (endpoint: median survival time, dose: 3.0 mg/kg/injection, schedule: Q01DX009 (ip), vehicle: Klucel (hydroxypropylcellulose) (HPC), higher = longer survival) was 104 % of control, the T/C (endpoint: median survival time, dose: 3.0 mg/kg/injection, schedule: Q01DX009 (ip), vehicle: saline, higher = longer survival) was 89 % of control and the T/C (endpoint: median survival time, dose: 3.12 mg/kg/injection, schedule: Q01DX009 (ip), vehicle: saline, higher = longer survival) was 100 % of control. The T/C (endpoint: median survival time, dose: 6.0 mg/kg/injection, schedule: Q01DX009 (ip), vehicle: saline, higher = longer survival) was 106 % of control, the T/C (endpoint: median survival time, dose: 6.25 mg/kg/injection, schedule: Q01DX009 (ip), vehicle: saline, higher = longer survival) was 111 % of control and the T/C (endpoint: median survival time, dose: 12.0 mg/kg/injection, schedule: Q01DX009 (ip), vehicle: saline, higher = longer survival) was 89 % of control. For the same molecule, the T/C (endpoint: median survival time, dose: 12.5 mg/kg/injection, schedule: Q01DX009 (ip), vehicle: saline, higher = longer survival) was 97 % of control.

With CCOC(=O)c1c[nH]c2c(Cl)c(C)ccc2c1=O the T/C (endpoint: mean tumor weight, dose: 104.0 mg/kg/injection, schedule: Q01DX011 (ip), vehicle: other, higher = larger tumour) was 106 % of control, the T/C (endpoint: mean tumor weight, dose: 155.0 mg/kg/injection, schedule: Q01DX011 (ip), vehicle: other, higher = larger tumour) was 111 % of control and the T/C (endpoint: mean tumor weight, dose: 350.0 mg/kg/injection, schedule: Q01DX011 (ip), vehicle: other, higher = larger tumour) was 75 % of control.

For NC(=O)c1[nH]nc(C2OC(CO)C(O)C2O)c1O (stereo not given), the T/C (endpoint: median survival time, dose: 1.73 mg/kg/injection, schedule: Q04DX003 (iv), vehicle: saline, higher = longer survival) was 191 % of control, the T/C (endpoint: median survival time, dose: 5.2 mg/kg/injection, schedule: Q04DX003 (iv), vehicle: saline, higher = longer survival) was 117 % of control and the T/C (endpoint: median survival time, dose: 15.6 mg/kg/injection, schedule: Q04DX003 (iv), vehicle: saline, higher = longer survival) was 69 % of control.

CC(=O)OC1CCC(NC(=O)N(CCCl)N=O)CC1 (stereo not given) was tested, and the T/C (endpoint: median survival time, dose: 24.0 mg/kg/injection, schedule: Q01DX001 (ip), vehicle: other, higher = longer survival) was 95 % of control.

With CC(C)C[CH2][Pb]([Cl])([CH2]CC(C)C)[CH2]CC(C)C the T/C (endpoint: median survival time, dose: 0.25 mg/kg/injection, schedule: Q01DX009 (ip), vehicle: Klucel (hydroxypropylcellulose) (HPC), higher = longer survival) was 112 % of control, the T/C (endpoint: median survival time, dose: 0.5 mg/kg/injection, schedule: Q01DX009 (ip), vehicle: Klucel (hydroxypropylcellulose) (HPC), higher = longer survival) was 102 % of control and the T/C (endpoint: median survival time, dose: 1.0 mg/kg/injection, schedule: Q01DX009 (ip), vehicle: Klucel (hydroxypropylcellulose) (HPC), higher = longer survival) was 93 % of control.

With COc1ccc2c(c1)CC[C@@H]1[C@@H]2CC[C@]2(C)/C(=N\O)CC[C@@H]12 the T/C (endpoint: mean tumor weight, dose: 50.0 mg/kg/injection, schedule: Q01DX011 (sc), vehicle: steriod suspending solution, higher = larger tumour) was 43 % of control, the T/C (endpoint: mean tumor weight, dose: 115.0 mg/kg/injection, schedule: Q01DX011 (sc), vehicle: steriod suspending solution, higher = larger tumour) was 53 % of control and the T/C (endpoint: mean tumor weight, dose: 170.0 mg/kg/injection, schedule: Q01DX011 (sc), vehicle: steriod suspending solution, higher = larger tumour) was 45 % of control. The T/C (endpoint: mean tumor weight, dose: 200.0 mg/kg/injection, schedule: Q01DX011 (sc), vehicle: steriod suspending solution, higher = larger tumour) was 53 % of control, the T/C (endpoint: mean tumor weight, dose: 250.0 mg/kg/injection, schedule: Q01DX011 (sc), vehicle: steriod suspending solution, higher = larger tumour) was 36 % of control and the T/C (endpoint: mean tumor weight, dose: 375.0 mg/kg/injection, schedule: Q01DX011 (sc), vehicle: steriod suspending solution, higher = larger tumour) was 43 % of control. For the same molecule, the T/C (endpoint: mean tumor weight, dose: 400.0 mg/kg/injection, schedule: Q01DX011 (sc), vehicle: steriod suspending solution, higher = larger tumour) was 50 % of control and the T/C (endpoint: mean tumor weight, dose: 600.0 mg/kg/injection, schedule: Q01DX011 (sc), vehicle: steriod suspending solution, higher = larger tumour) was 24 % of control.

In the case of CC(=O)[C@H]1CC[C@H]2[C@@H]3CCC4=CC(=O)CC[C@]4(C)[C@H]3CC[C@]12C, the T/C (endpoint: median survival time, dose: 12.5 mg/kg/injection, schedule: Q02DX009 (ip), vehicle: Klucel (hydroxypropylcellulose) (HPC), higher = longer survival) is reported as 99 % of control, the T/C (endpoint: median survival time, dose: 25.0 mg/kg/injection, schedule: Q02DX009 (ip), vehicle: Klucel (hydroxypropylcellulose) (HPC), higher = longer survival) is reported as 107 % of control and the T/C (endpoint: median survival time, dose: 50.0 mg/kg/injection, schedule: Q02DX009 (ip), vehicle: Klucel (hydroxypropylcellulose) (HPC), higher = longer survival) is reported as 90 % of control. The T/C (endpoint: median survival time, dose: 100.0 mg/kg/injection, schedule: Q02DX009 (ip), vehicle: Klucel (hydroxypropylcellulose) (HPC), higher = longer survival) was 95 % of control, the T/C (endpoint: median survival time, dose: 200.0 mg/kg/injection, schedule: Q02DX009 (ip), vehicle: Klucel (hydroxypropylcellulose) (HPC), higher = longer survival) was 101 % of control and the T/C (endpoint: median survival time, dose: 400.0 mg/kg/injection, schedule: Q02DX009 (ip), vehicle: Klucel (hydroxypropylcellulose) (HPC), higher = longer survival) was 96 % of control.

In the case of S=C(N=Nc1ccccc1)NNc1ccccc1, the T/C (endpoint: mean tumor weight, dose: 45.0 mg/kg/injection, schedule: Q01DX011 (ip), vehicle: carboxymethylcellulose (CMC), higher = larger tumour) is reported as 60 % of control.

For NC(Cc1cc(Cl)c(O)c(Cl)c1)C(=O)O (stereo not given), the T/C (endpoint: median survival time, dose: 18.75 mg/kg/injection, schedule: Q01DX009 (ip), vehicle: saline, higher = longer survival) was 115 % of control, the T/C (endpoint: median survival time, dose: 37.5 mg/kg/injection, schedule: Q01DX009 (ip), vehicle: saline, higher = longer survival) was 117 % of control and the T/C (endpoint: median survival time, dose: 75.0 mg/kg/injection, schedule: Q01DX009 (ip), vehicle: saline, higher = longer survival) was 115 % of control.

COc1cc2c(c(OC)c1OC)-c1ccc(OC)c(=O)cc1[C@@H](NC(C)=O)CC2 was tested, and the T/C (endpoint: mean tumor weight, dose: 0.06 mg/kg/injection, schedule: Q01DX011 (ip), vehicle: saline, higher = larger tumour) was 65 % of control, the T/C (endpoint: mean tumor weight, dose: 0.12 mg/kg/injection, schedule: Q01DX011 (ip), vehicle: saline, higher = larger tumour) was 61 % of control and the T/C (endpoint: mean tumor weight, dose: 0.25 mg/kg/injection, schedule: Q01DX011 (ip), vehicle: saline, higher = larger tumour) was 46 % of control. The T/C (endpoint: median survival time, dose: 0.13 mg/kg/injection, schedule: Q01DX009 (ip), vehicle: saline, higher = longer survival) was 100 % of control, the T/C (endpoint: median survival time, dose: 0.25 mg/kg/injection, schedule: Q01DX009 (ip), vehicle: saline, higher = longer survival) was 98 % of control and the T/C (endpoint: median survival time, dose: 0.5 mg/kg/injection, schedule: Q01DX009 (ip), vehicle: saline, higher = longer survival) was 99 % of control. For the same molecule, the T/C (endpoint: median survival time, dose: 63.0 micrograms/kg/injection, schedule: Q01DX009 (ip), vehicle: saline, higher = longer survival) was 103 % of control, the T/C (endpoint: median survival time, dose: 125.0 micrograms/kg/injection, schedule: Q01DX009 (ip), vehicle: saline, higher = longer survival) was 106 % of control and the T/C (endpoint: median survival time, dose: 250.0 micrograms/kg/injection, schedule: Q01DX009 (ip), vehicle: saline, higher = longer survival) was 108 % of control. The T/C (endpoint: median survival time, dose: 500.0 micrograms/kg/injection, schedule: Q01DX009 (ip), vehicle: saline, higher = longer survival) was 108 % of control and the T/C (endpoint: median survival time, dose: 1000.0 micrograms/kg/injection, schedule: Q01DX009 (ip), vehicle: saline, higher = longer survival) was 91 % of control.

C=C1CC/C=C(\C)CCC2C1CC2(C)C (stereo not given) was tested, and the T/C (endpoint: mean tumor weight, dose: 25.0 mg/kg/injection, schedule: Q01DX011 (ip), vehicle: saline, higher = larger tumour) was 94 % of control, the T/C (endpoint: mean tumor weight, dose: 50.0 mg/kg/injection, schedule: Q01DX011 (ip), vehicle: saline, higher = larger tumour) was 88 % of control and the T/C (endpoint: mean tumor weight, dose: 100.0 mg/kg/injection, schedule: Q01DX011 (ip), vehicle: saline, higher = larger tumour) was 45 % of control.

CO[C@H]1C[C@H](O[C@H]2CC[C@]3(C=O)[C@H]4CC[C@]5(C)[C@@H](C6=CC(=O)OC6)CC[C@]5(O)[C@@H]4CC[C@]3(O)C2)O[C@H](C)[C@H]1O was tested, and the T/C (endpoint: mean tumor weight, dose: 2.6 mg/kg/injection, schedule: Q01DX011 (sc), vehicle: steriod suspending solution, higher = larger tumour) was 59 % of control and the T/C (endpoint: mean tumor weight, dose: 4.0 mg/kg/injection, schedule: Q01DX011 (sc), vehicle: steriod suspending solution, higher = larger tumour) was 78 % of control.

For COC1OC(CNC(=O)N(C)N=O)C(O)C(O)C1O (stereo not given), the T/C (endpoint: median survival time, dose: 50.0 mg/kg/injection, schedule: Q01DX009 (ip), vehicle: saline, higher = longer survival) was 102 % of control, the T/C (endpoint: median survival time, dose: 100.0 mg/kg/injection, schedule: Q01DX009 (ip), vehicle: saline, higher = longer survival) was 112 % of control and the T/C (endpoint: median survival time, dose: 200.0 mg/kg/injection, schedule: Q01DX009 (ip), vehicle: saline, higher = longer survival) was 97 % of control.

In the case of O=C(NP(=O)(N1CC1)N1CC1)c1cc(I)ccc1I, the T/C (endpoint: median survival time, dose: 1.0 mg/kg/injection, schedule: Q02DX009 (ip), vehicle: saline with Tween-80, higher = longer survival) is reported as 110 % of control, the T/C (endpoint: median survival time, dose: 2.0 mg/kg/injection, schedule: Q02DX009 (ip), vehicle: saline with Tween-80, higher = longer survival) is reported as 112 % of control and the T/C (endpoint: median survival time, dose: 4.0 mg/kg/injection, schedule: Q02DX009 (ip), vehicle: saline with Tween-80, higher = longer survival) is reported as 117 % of control. The T/C (endpoint: median survival time, dose: 8.0 mg/kg/injection, schedule: Q02DX009 (ip), vehicle: saline with Tween-80, higher = longer survival) was 117 % of control, the T/C (endpoint: median survival time, dose: 16.0 mg/kg/injection, schedule: Q02DX009 (ip), vehicle: saline with Tween-80, higher = longer survival) was 106 % of control and the T/C (endpoint: median survival time, dose: 32.0 mg/kg/injection, schedule: Q02DX009 (ip), vehicle: saline with Tween-80, higher = longer survival) was 102 % of control. The T/C (endpoint: median survival time, dose: 64.0 mg/kg/injection, schedule: Q02DX009 (ip), vehicle: saline with Tween-80, higher = longer survival) was 98 % of control.
